Measurements: PMC9088392 (RSC Advances, 2022)

Target: T1, PaER (Ogataea polymorpha, UniProt A0A1B7SQN2)
T1 sequence (A0A1B7SQN2 1-402): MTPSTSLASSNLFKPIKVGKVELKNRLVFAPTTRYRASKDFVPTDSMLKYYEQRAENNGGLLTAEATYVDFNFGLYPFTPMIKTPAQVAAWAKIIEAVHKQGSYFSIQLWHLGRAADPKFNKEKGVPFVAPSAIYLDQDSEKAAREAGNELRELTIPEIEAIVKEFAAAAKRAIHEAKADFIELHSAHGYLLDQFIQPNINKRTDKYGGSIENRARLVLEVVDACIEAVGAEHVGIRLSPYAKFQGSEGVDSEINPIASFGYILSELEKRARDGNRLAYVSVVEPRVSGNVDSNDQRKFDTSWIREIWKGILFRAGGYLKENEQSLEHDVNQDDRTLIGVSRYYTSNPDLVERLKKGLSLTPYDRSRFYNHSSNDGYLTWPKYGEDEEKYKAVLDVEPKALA
Experiment: flavin released from purified enzyme by heat, RP-HPLC
Assay type: binding
Conditions: non-covalent flavin co-purified with the enzyme

Cc1cc2nc3c(=O)[nH]c(=O)nc-3n(C[C@H](O)[C@H](O)[C@H](O)COP(=O)(O)O)c2cc1C [FMN]
flavin released from purified enzyme by heat, RP-HPLC: yellow color as expected for FMN-containing protein and was also confirmed by HPLC
